# From the supplement of paper PMC11208160
# Assay: recombinant barcode read abundance after kanamycin selection (control-corrected) (log10(CPM+1)); higher = more efficient recombination; sequences stand for … in AGTGCAGAGAAAATCGGCCAGTTTTCTCTGCCTGCAGTCCGCATGCCGT…AGATTTATGCAGCGGACTGCCTTTCTCCCAAAGTGATAAACCGGACAGTATCATGGACCGGTTTTCCCGGTAATCCGTATTTGCAAGGTTGGTTTCACT; site = the 11-nt target
# Procedure, shortened: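 Values are log10(CPM+1) from a pooled E. coli screen of targets paired with IS621 bridge RNA target-binding loops. Recombination efficiency here means counts per million of recombinant-junction barcodes, averaged and control-corrected. Plates were chloramphenicol/ampicillin LB agar for the control and chloramphenicol/ampicillin/kanamycin with 0.1 mM IPTG, two replicates each.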
# 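Also: IS621 recombinase and bridge RNA in Escherichia coli cells.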
row,Sequence,recombinant barcode read abundance (log10)
1,CGTGTAACTTGGGTTCTAACCTGTTGCCT (site CGTGTAACTAG),0.332
2,CGTTCGACTTGGGTTCTAACCTGTTGCAT (site CGTACGACTAT),0.131
3,CGTTCGACTTGGGTTCTAACCTGTTGCAT (site CGTCCGACTAT),0.0713
4,CGTTCGACTTGGGTTCTAACCTGTTGCAT (site CGTGCGACTAT),0.174
5,CGTTCGACTTGGGTTCTAACCTGTTGCAT (site CGTTCGACTAT),0.133
6,CGTTCGACTTGGGTTCTAACCTGTTGCCT (site CGTTCAACTAG),0.0692
7,CGTTCGACTTGGGTTCTAACCTGTTGCCT (site CGTTCCACTAG),0
8,CGTTCGACTTGGGTTCTAACCTGTTGCCT (site CGTTCGACTAG),0.0748
9,CGTTCGACTTGGGTTCTAACCTGTTGCCT (site CGTTCTACTAG),0.0286
10,CGTTCTCCTTGGGTTCTAACCTGTTGCCT (site AGTTCTCCTAG),0.0567
11,CGTTCTCCTTGGGTTCTAACCTGTTGCCT (site CGTTCTCCTAG),0.0201
12,CGTTCTCCTTGGGTTCTAACCTGTTGCCT (site GGTTCTCCTAG),0.0547
13,CGTTCTCCTTGGGTTCTAACCTGTTGCCT (site TGTTCTCCTAG),0.121
14,CGTTGCCCTTGGGTTCTAACCTGTTGCCT (site CATTGCCCTAG),0.19
15,CGTTGCCCTTGGGTTCTAACCTGTTGCCT (site CCTTGCCCTAG),0.0881
16,CGTTGCCCTTGGGTTCTAACCTGTTGCCT (site CGTTGCCCTAG),0.166
17,CGTTGCCCTTGGGTTCTAACCTGTTGCCT (site CTTTGCCCTAG),0.468
18,CGTTGGTCTTGGGTTCTAACCTGTTGCGA (site CGTTGGTCTTC),0.759
19,CGTTGGTCTTGGGTTCTAACCTGTTGCGA (site TTGCATCCTCT),0.0731
20,CGTTTCCCTTGGGTTCTAACCTGTTGCAG (site CGTTTCCCTAC),0.152

row,Sequence,recombinant barcode read abundance (log10)
1,CGTTTCCCTTGGGTTCTAACCTGTTGCAG (site CGTTTCCCTCT),0.427
2,CGTTTCCCTTGGGTTCTAACCTGTTGCGT (site CGTTTCCCTAC),1.04
3,CGTTTCCCTTGGGTTCTAACCTGTTGCGT (site CGTTTCCCTCT),0.0161
4,CTAAAACCTTGGGTTCTAACCTGTTGCCT (site ATAAAACCTAG),0.0167
5,CTAAAACCTTGGGTTCTAACCTGTTGCCT (site CTAAAACCTAG),1
6,CTAAAACCTTGGGTTCTAACCTGTTGCCT (site GTAAAACCTAG),0.0969
7,CTAAAACCTTGGGTTCTAACCTGTTGCCT (site TTAAAACCTAG),0.218
8,CTAAAGTCTTGGGTTCTAACCTGTTGCCA (site CTAAAGTCTTG),0.399
9,CTAAAGTCTTGGGTTCTAACCTGTTGCCA (site GTAAAGTCTTG),0.0268
10,CTAAATACTTGGGTTCTAACCTGTTGCTA (site CTAAATACTAG),0.835
11,CTAAATACTTGGGTTCTAACCTGTTGCTA (site CTAAATACTTA),0.126
12,CTAACCACTTGGGTTCTAACCTGTTGCCA (site CTAACCACTTG),0.329
13,CTAACCACTTGGGTTCTAACCTGTTGCCA (site CTAACTACTAG),0.0393
14,CTAACCTCTTGGGTTCTAACCTGTTGCTC (site CTAACCTCTAA),0.0754
15,CTAACCTCTTGGGTTCTAACCTGTTGCTC (site CTAACCTCTCA),0.0593
16,CTAACCTCTTGGGTTCTAACCTGTTGCTC (site CTAACCTCTGA),1.66
17,CTAACCTCTTGGGTTCTAACCTGTTGCTC (site CTAACCTCTTA),0.0437
18,CTAACCTCTTGGGTTCTAACCTGTTGCTG (site CTAACCTCTAA),0.0311
19,CTAACCTCTTGGGTTCTAACCTGTTGCTG (site CTAACCTCTCA),1.49
20,CTAACCTCTTGGGTTCTAACCTGTTGCTG (site CTAACCTCTGA),0.0869

row,Sequence,recombinant barcode read abundance (log10)
1,CTAACCTCTTGGGTTCTAACCTGTTGCTG (site CTAACCTCTTA),0.0665
2,CTAACTACTTGGGTTCTAACCTGTTGCCT (site CTAACCACTTG),0
3,CTAACTACTTGGGTTCTAACCTGTTGCCT (site CTAACTACTAG),0.26
4,CTAACTACTTGGGTTCTAACCTGTTGCGT (site CTAACTACTAC),0.181
5,CTAACTACTTGGGTTCTAACCTGTTGCGT (site GAGGTGCCTCA),0.0974
6,CTAAGAACTTGGGTTCTAACCTGTTGCTT (site CTAAGAACTAA),0.254
7,CTAAGAACTTGGGTTCTAACCTGTTGCTT (site CTAAGAACTAC),0.509
8,CTAAGAACTTGGGTTCTAACCTGTTGCTT (site CTAAGAACTAG),0.135
9,CTAAGAACTTGGGTTCTAACCTGTTGCTT (site CTAAGAACTAT),0.086
10,CTAAGAGCTTGGGTTCTAACCTGTTGCAG (site CTAAGAGCTCG),0.123
11,CTAAGAGCTTGGGTTCTAACCTGTTGCAG (site CTAAGAGCTCT),1.98
12,CTAAGCGCTTGGGTTCTAACCTGTTGCCT (site AGTCAGACTGT),0.463
13,CTAAGCGCTTGGGTTCTAACCTGTTGCCT (site CTAAGCGCTAG),0.346
14,CTAAGCTCTTGGGTTCTAACCTGTTGCCT (site ATAAGCTCTAG),0.129
15,CTAAGCTCTTGGGTTCTAACCTGTTGCCT (site CTAAGCTCTAG),0.756
16,CTAAGCTCTTGGGTTCTAACCTGTTGCCT (site GTAAGCTCTAG),0.0807
17,CTAAGCTCTTGGGTTCTAACCTGTTGCCT (site TTAAGCTCTAG),0.201
18,CTAAGCTCTTGGGTTCTAACCTGTTGCTC (site CTAAGCTCTAA),0.537
19,CTAAGCTCTTGGGTTCTAACCTGTTGCTC (site CTAAGCTCTCA),0.0828
